15 compounds from ChEMBL document CHEMBL1130813, “Novel euglycemic and hypolipidemic agents: Part-2. Antioxidant moiety as structural motif” (1998) can be followed below.

The test system of assay [1] is Mus musculus. Kind of assay: Percent reduction in plasma triglyceride level was evaluated in mice at a dose of 200 mg/kg/day p.o. for 9 days. Conditions: route oral. The format is functional.
The subject of assay [2] is Mus musculus. Kind of assay: Percent reduction in plasma blood glucose level was evaluated in mice at a dose of 200 mg/kg/day p.o. for 9 days. The format is functional. Particulars: route oral.
The test system of assay [3] is Mus musculus. Description: Percent reduction in plasma triglyceride level was evaluated in mice at a dose of 200 mg/kg/day p.o. for 9 days; not applicable. The format is functional, organism-based.

Calls of active or inactive are those of the source. The calls are words filed in the database; no cut-off is given here.

In the case of `Cc1c(C)c2c(c(C)c1O)C(CN(C)CCOc1ccc(/C=C3\SC(=O)NC3=O)cc1)C(C)(C)O2.O=C(O)/C=C\C(=O)O` (stereo not given), the Reduction in the assay on Mus musculus [1] is 33%; with Mus musculus [2], 35%.
Take `Cc1c(C)c2c(c(C)c1OCc1ccccc1)C(CN(C)CCOc1ccc(/C=C3\SC(=O)NC3=O)cc1)C(C)(C)O2` (stereo not given): the Reduction entry in the assay with Mus musculus [3] is “inactive”. Also, in the assay with Mus musculus [2], the Reduction is listed as 23%.
For the compound `Cc1c(C)c2c(c(C)c1O)CCC(C)(COc1ccc(CC3SC(=O)NC3=O)cc1)O2` (stereo not given) [TROGLITAZONE], the Reduction in the assay on Mus musculus [1] is 50%; in the assay with Mus musculus [2] it was 24%.
The matching figures for `Cc1c(C)c2c(c(C)c1O)C(COc1ccc(CC3SC(=O)NC3=O)cc1)C(C)(C)O2` (stereo not given): 40% and 19%.
The matching figures for `Cc1c(C)c2c(c(C)c1O)CCC(C)(CNCCOc1ccc(/C=C3\SC(=O)NC3=O)cc1)O2` (stereo not given): 29% and 6%.
The matching figures for `CC(=O)O.Cc1c(C)c2c(c(C)c1O)CCC(C)(CN(C)CCOc1ccc(/C=C3\SC(=O)NC3=O)cc1)O2` (stereo not given): 31% and 11%.
In the case of `Cc1c(C)c2c(c(C)c1O)CCC(C)(CN(C)CCOc1ccc(/C=C3\SC(=O)NC3=O)cc1)O2.O=C(O)/C=C\C(=O)O` (stereo not given), the Reduction in the assay on Mus musculus [1] was found to be 60%; with Mus musculus [2], 20%.
For `Cc1c(C)c2c(c(C)c1O)CCC(C)(CN(C)CCOc1ccc(CC3SC(=O)NC3=O)cc1)O2` (stereo not given), the Reduction entry with Mus musculus [3] is “inactive”. Besides, in the assay with Mus musculus [2], the Reduction came to 4%.
For `Cc1c(C)c2c(c(C)c1O)C(CN(C)CCOc1ccc(CC3SC(=O)NC3=O)cc1)C(C)(C)O2` (stereo not given), the Reduction with Mus musculus [1] amounted to 33%; in the assay with Mus musculus [2] it was 17%.
The like results for `Cc1c(C)c2c(c(C)c1O)CCC(C)(CN(C)CCOc1ccc(/C=C3\SC(=O)NC3=O)cc1)O2` (stereo not given) were, in that order, 70% and 43%.
The matching figures for `CS(=O)(=O)O.Cc1c(C)c2c(c(C)c1O)CCC(C)(CN(C)CCOc1ccc(/C=C3\SC(=O)NC3=O)cc1)O2` (stereo not given): 70% and 20%.
The like results for `Cc1c(C)c2c(c(C)c1O)C(CN(C)CCOc1ccc(/C=C3\SC(=O)NC3=O)cc1)C(C)(C)O2` (stereo not given) were, in that order, 71% and 46%.
On to `CCN(CCOc1ccc(/C=C2\SC(=O)NC2=O)cc1)CC1(C)CCc2c(C)c(O)c(C)c(C)c2O1` (stereo not given), for which the Reduction in the assay on Mus musculus [1] was determined as 76%; in the assay on Mus musculus [2], 2%.
The like results for `Cc1c(C)c2c(c(C)c1OCc1ccccc1)CCC(C)(CN(C)CCOc1ccc(/C=C3\SC(=O)NC3=O)cc1)O2` (stereo not given) were, in that order, 32% and 39%.
The matching figures for `Cc1c(C)c2c(c(C)c1O)CCC(C)(CN(C)CCOc1ccc(/C=C3\SC(=O)NC3=O)cc1)O2.Cl` (stereo not given): 30% and 31%.
